Source: ChEMBL document CHEMBL4354785, “Recent insights into natural product inhibitors of matrix metalloproteinases” (Medchemcomm, 2019)

Key:
[1] = biological target: 72 kDa type IV collagenase (Homo sapiens, UniProt P08253); assay: Inhibition of recombinant human MMP2 using fluorescently conjugated gelatin as substrate
[2] = biological target: T1, Matrix metalloproteinase-9 (Homo sapiens, UniProt P14780); assay: Inhibition of human MMP9 (107 to 707 residues) expressed in Escherichia coli BL21(DE3) cells
T1 sequence (P14780 whole entry, the tested form may be a part): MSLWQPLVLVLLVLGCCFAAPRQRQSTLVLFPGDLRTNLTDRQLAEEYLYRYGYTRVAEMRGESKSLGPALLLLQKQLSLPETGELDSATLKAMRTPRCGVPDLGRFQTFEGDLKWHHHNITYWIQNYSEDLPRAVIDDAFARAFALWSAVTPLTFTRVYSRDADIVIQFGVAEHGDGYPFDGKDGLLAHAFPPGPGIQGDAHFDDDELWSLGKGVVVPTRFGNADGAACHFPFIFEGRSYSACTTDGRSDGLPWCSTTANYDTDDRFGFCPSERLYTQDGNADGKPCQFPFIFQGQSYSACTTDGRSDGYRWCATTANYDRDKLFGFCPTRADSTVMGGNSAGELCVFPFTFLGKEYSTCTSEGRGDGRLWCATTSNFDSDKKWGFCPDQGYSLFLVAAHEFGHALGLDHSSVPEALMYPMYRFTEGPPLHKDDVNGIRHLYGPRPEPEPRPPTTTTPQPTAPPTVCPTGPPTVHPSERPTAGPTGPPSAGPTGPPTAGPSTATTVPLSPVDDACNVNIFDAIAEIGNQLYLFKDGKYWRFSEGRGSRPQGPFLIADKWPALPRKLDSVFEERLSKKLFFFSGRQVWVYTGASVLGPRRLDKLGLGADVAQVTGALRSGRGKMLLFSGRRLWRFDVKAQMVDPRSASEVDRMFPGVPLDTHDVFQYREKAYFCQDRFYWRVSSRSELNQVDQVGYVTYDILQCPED

[3] = biological target: T1, Matrix metalloproteinase-9; assay: Inhibition of human MMP9 catalytic domain using Mca-PLGL-Dpa-AR-NH2 as substrate by fluorescence method

Chain of 72 kDa type IV collagenase (P08253 whole entry, the tested form may be a part): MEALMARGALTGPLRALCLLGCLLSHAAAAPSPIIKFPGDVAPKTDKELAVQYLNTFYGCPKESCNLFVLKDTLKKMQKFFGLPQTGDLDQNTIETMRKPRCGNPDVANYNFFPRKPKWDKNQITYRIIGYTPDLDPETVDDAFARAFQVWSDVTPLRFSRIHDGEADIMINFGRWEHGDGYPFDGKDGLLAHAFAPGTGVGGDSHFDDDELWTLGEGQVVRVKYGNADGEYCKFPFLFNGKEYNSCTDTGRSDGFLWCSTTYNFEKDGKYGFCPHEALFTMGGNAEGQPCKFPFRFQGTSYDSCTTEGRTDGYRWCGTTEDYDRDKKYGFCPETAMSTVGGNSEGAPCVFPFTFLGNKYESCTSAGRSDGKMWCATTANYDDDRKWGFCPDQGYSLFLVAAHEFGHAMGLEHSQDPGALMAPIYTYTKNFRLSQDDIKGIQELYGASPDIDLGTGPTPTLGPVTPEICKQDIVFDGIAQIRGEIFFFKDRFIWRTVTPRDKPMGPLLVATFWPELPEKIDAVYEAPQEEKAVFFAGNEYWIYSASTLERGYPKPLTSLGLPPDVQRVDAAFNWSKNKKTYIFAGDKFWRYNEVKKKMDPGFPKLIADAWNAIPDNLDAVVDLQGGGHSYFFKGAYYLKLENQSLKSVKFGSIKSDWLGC

CCCCC/C=C/CCCCCCCc1cccc(O)c1C(=O)O
IC50 [1]: 6.5 µM

O=C(/C=C/c1ccc(O)c(O)c1)Oc1ccc2c(c1)C(=O)OCC2
IC50 [2]: 1.39 µM

COc1ccc(/C=C/C(=O)O[C@H](C(=O)O)[C@](O)(Cc2ccc(O)c(O)c2)C(=O)O)cc1O [CIMICIFUGIC ACID B]
IC50 [3]: 13.4 µM

CCCCCC/C=C\CCCCCCCc1cccc(O)c1C(=O)O [GINGKOLIC ACID]
IC50 [1]: 6.3 µM
